Data taken from PubChem BioAssay AID1963985 (Molecular Pharmacology Branch, DTP, NCI, 2024).

Test system: 252836-082-R-J2-PDC tumor spheroids, viability
Assay: Anticancer human tumor 252836-082-R-J2-PDC patient-derived head and neck squamous cell carcinoma cell line growth inhibition [PI3K]
Settings: spheroids with HUVEC and MSC; for IC50: curve of first compound; for viability, T/C: stronger effect = lower value
Procedure, shortened: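 Complex 3D spheroids (cancer cells + endothelial HUVEC + mesenchymal stem cells); drug pairs of targeted agent x inavolisib/alpelisib/duvelisib/copanlisib; half-log series from ~Cmax, max 10 microM if Cmax unknown; endpoint viability.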
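Further: spheroids exposed to agents for seven days before readout.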
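Wherever viability, T/C is given: percent of vehicle DMSO control viability so 100% = untreated growth.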

Which results are given for `Cn1cnc2c(F)c(Nc3ccc(Br)cc3Cl)c(C(=O)NOCCO)cc21` + COc1c(OCCCN2CCOCC2)ccc2c3n(c(=NC(=O)c4cnc(N)nc4)nc12)CCN3?
IC50 (second compound 0.00316 µM): 2050 nM; IC50 (second compound 0.01 µM): 1070 nM; IC50 (second compound 0.0316 µM): 78.4 nM; IC50 (second compound 0.1 µM): < 9.49 nM; IC50 (second compound 0.316 µM): < 9.49 nM; IC50 (second compound 1 µM): < 9.49 nM; viability, T/C (second compound 0.00316 µM, first compound 0.00949 µM): 91.6%; viability, T/C (second compound 0.00316 µM, first compound 0.03 µM): 71.5%; viability, T/C (second compound 0.00316 µM, first compound 0.0949 µM): 82.4%; viability, T/C (second compound 0.00316 µM, first compound 0.3 µM): 80.4%; viability, T/C (second compound 0.00316 µM, first compound 0.949 µM): 75.3%; viability, T/C (second compound 0.00316 µM, first compound 3 µM): 37.5%; viability, T/C (second compound 0.01 µM, first compound 0.00949 µM): 73.5%; viability, T/C (second compound 0.01 µM, first compound 0.03 µM): 70.3%; viability, T/C (second compound 0.01 µM, first compound 0.0949 µM): 76.7%; viability, T/C (second compound 0.01 µM, first compound 0.3 µM): 65.2%; viability, T/C (second compound 0.01 µM, first compound 0.949 µM): 52.1%; viability, T/C (second compound 0.01 µM, first compound 3 µM): 35.5%; viability, T/C (second compound 0.0316 µM, first compound 0.00949 µM): 59.6%; viability, T/C (second compound 0.0316 µM, first compound 0.03 µM): 48.8%; viability, T/C (second compound 0.0316 µM, first compound 0.0949 µM): 49%; viability, T/C (second compound 0.0316 µM, first compound 0.3 µM): 46.2%; viability, T/C (second compound 0.0316 µM, first compound 0.949 µM): 34.1%; viability, T/C (second compound 0.0316 µM, first compound 3 µM): 25.1%; viability, T/C (second compound 0.1 µM, first compound 0.00949 µM): 31.6%; viability, T/C (second compound 0.1 µM, first compound 0.03 µM): 33.3%; viability, T/C (second compound 0.1 µM, first compound 0.0949 µM): 33.1%; viability, T/C (second compound 0.1 µM, first compound 0.3 µM): 29.5%; viability, T/C (second compound 0.1 µM, first compound 0.949 µM): 18%; viability, T/C (second compound 0.1 µM, first compound 3 µM): 7.77%; viability, T/C (second compound 0.316 µM, first compound 0.00949 µM): 14.8%; viability, T/C (second compound 0.316 µM, first compound 0.03 µM): 12.2%; viability, T/C (second compound 0.316 µM, first compound 0.0949 µM): 9.2%; viability, T/C (second compound 0.316 µM, first compound 0.3 µM): 7.79%; viability, T/C (second compound 0.316 µM, first compound 0.949 µM): 3.35%; viability, T/C (second compound 0.316 µM, first compound 3 µM): 0.38%; viability, T/C (second compound 1 µM, first compound 0.00949 µM): 2.53%; viability, T/C (second compound 1 µM, first compound 0.03 µM): 2.17%; viability, T/C (second compound 1 µM, first compound 0.0949 µM): 2.32%; viability, T/C (second compound 1 µM, first compound 0.3 µM): 0.64%; viability, T/C (second compound 1 µM, first compound 0.949 µM): 3.69%; viability, T/C (second compound 1 µM, first compound 3 µM): 0.18%

With `CC(C)n1nc(-c2ccc3oc(N)nc3c2)c2c(N)ncnc21` + CC(Nc1ccc2c(c1)OCCn1cc(N3C(=O)OCC3C(F)F)nc1-2)C(N)=O as the compound, how does the IC50 (second compound 0.00316 µM) read?
The IC50 was 36.9 nM.

And the IC50 (second compound 0.01 µM)?
The IC50 was 26.9 nM.

What about the IC50 (second compound 0.0316 µM) of the same compound?
The IC50 was 22.4 nM.

What about the IC50 (second compound 0.1 µM) of the same compound?
Its IC50 is 9.42 nM.

And the IC50 (second compound 0.316 µM)?
Its IC50 is 4.07 nM.

And the IC50 (second compound 1 µM)?
Its IC50 is under 0.316 nM.

What about the viability, T/C (second compound 0.00316 µM, first compound 0.000316 µM) of the same compound?
The viability, T/C was 108%.

What about the viability, T/C (second compound 0.00316 µM, first compound 0.001 µM) of the same compound?
The viability, T/C was 81.8%.

And the viability, T/C (second compound 0.00316 µM, first compound 0.00316 µM)?
The viability, T/C was 79%.

And the viability, T/C (second compound 0.00316 µM, first compound 0.01 µM)?
Its viability, T/C is 86%.

What about the viability, T/C (second compound 0.00316 µM, first compound 0.0316 µM) of the same compound?
The viability, T/C was 51.1%.

And the viability, T/C (second compound 0.00316 µM, first compound 0.1 µM)?
Its viability, T/C is 21.9%.

And the viability, T/C (second compound 0.01 µM, first compound 0.000316 µM)?
Its viability, T/C is 94%.

What about the viability, T/C (second compound 0.01 µM, first compound 0.001 µM) of the same compound?
The viability, T/C was 81.1%.

What about the viability, T/C (second compound 0.01 µM, first compound 0.00316 µM) of the same compound?
Its viability, T/C is 73.6%.

What about the viability, T/C (second compound 0.01 µM, first compound 0.01 µM) of the same compound?
Its viability, T/C is 69.4%.

And the viability, T/C (second compound 0.01 µM, first compound 0.0316 µM)?
Its viability, T/C is 47.7%.

And the viability, T/C (second compound 0.01 µM, first compound 0.1 µM)?
Its viability, T/C is 21.3%.

And the viability, T/C (second compound 0.0316 µM, first compound 0.000316 µM)?
Its viability, T/C is 86.2%.

What about the viability, T/C (second compound 0.0316 µM, first compound 0.001 µM) of the same compound?
The viability, T/C was 77.4%.

What about the viability, T/C (second compound 0.0316 µM, first compound 0.00316 µM) of the same compound?
Its viability, T/C is 80.7%.

What about the viability, T/C (second compound 0.0316 µM, first compound 0.01 µM) of the same compound?
Its viability, T/C is 61.7%.

And the viability, T/C (second compound 0.0316 µM, first compound 0.0316 µM)?
Its viability, T/C is 44.8%.

And the viability, T/C (second compound 0.0316 µM, first compound 0.1 µM)?
The viability, T/C was 19.4%.

And the viability, T/C (second compound 0.1 µM, first compound 0.000316 µM)?
Its viability, T/C is 78.2%.

What about the viability, T/C (second compound 0.1 µM, first compound 0.001 µM) of the same compound?
The viability, T/C was 65.1%.

What about the viability, T/C (second compound 0.1 µM, first compound 0.00316 µM) of the same compound?
Its viability, T/C is 59.5%.

And the viability, T/C (second compound 0.1 µM, first compound 0.01 µM)?
The viability, T/C was 52.5%.

And the viability, T/C (second compound 0.1 µM, first compound 0.0316 µM)?
Its viability, T/C is 35.2%.

What about the viability, T/C (second compound 0.1 µM, first compound 0.1 µM) of the same compound?
Its viability, T/C is 15.9%.

What about the viability, T/C (second compound 0.316 µM, first compound 0.000316 µM) of the same compound?
The viability, T/C was 55.1%.

What about the viability, T/C (second compound 0.316 µM, first compound 0.001 µM) of the same compound?
The viability, T/C was 52.3%.

What about the viability, T/C (second compound 0.316 µM, first compound 0.00316 µM) of the same compound?
The viability, T/C was 56.6%.

What about the viability, T/C (second compound 0.316 µM, first compound 0.01 µM) of the same compound?
Its viability, T/C is 40%.

What about the viability, T/C (second compound 0.316 µM, first compound 0.0316 µM) of the same compound?
The viability, T/C was 28.9%.

And the viability, T/C (second compound 0.316 µM, first compound 0.1 µM)?
The viability, T/C was 16.6%.

What about the viability, T/C (second compound 1 µM, first compound 0.000316 µM) of the same compound?
The viability, T/C was 46.4%.

What about the viability, T/C (second compound 1 µM, first compound 0.001 µM) of the same compound?
The viability, T/C was 52.5%.

What about the viability, T/C (second compound 1 µM, first compound 0.00316 µM) of the same compound?
Its viability, T/C is 42.4%.

What about the viability, T/C (second compound 1 µM, first compound 0.01 µM) of the same compound?
Its viability, T/C is 37.8%.

What about the viability, T/C (second compound 1 µM, first compound 0.0316 µM) of the same compound?
Its viability, T/C is 26.6%.

What about the viability, T/C (second compound 1 µM, first compound 0.1 µM) of the same compound?
Its viability, T/C is 11.9%.
